# Measured values published in patent publication US20040038861A1, “Methods and compositions for normalizing lipid levels in mammalian tissues” (priority 2001, published 2004).
# Legend:
# ramp 1/C1ins− receptor = biological target: T1, ramp 1/C1ins− receptor (Mus musculus, UniProt Q60755+Q9WTJ5); assay: cAMP production in L6 myoblasts co-transfected with ramp 1 and C1ins−; assay type: cell-based, murine; settings: 15 min, FIG. 10
# T1 construct: expressed in transfected cells; host or cells: L6 myoblasts (ATCC), transient co-transfection of pcDNA3.1 plasmids
# T1 sequence (Q60755 42-496 isoform Q60755-2 limits assumed): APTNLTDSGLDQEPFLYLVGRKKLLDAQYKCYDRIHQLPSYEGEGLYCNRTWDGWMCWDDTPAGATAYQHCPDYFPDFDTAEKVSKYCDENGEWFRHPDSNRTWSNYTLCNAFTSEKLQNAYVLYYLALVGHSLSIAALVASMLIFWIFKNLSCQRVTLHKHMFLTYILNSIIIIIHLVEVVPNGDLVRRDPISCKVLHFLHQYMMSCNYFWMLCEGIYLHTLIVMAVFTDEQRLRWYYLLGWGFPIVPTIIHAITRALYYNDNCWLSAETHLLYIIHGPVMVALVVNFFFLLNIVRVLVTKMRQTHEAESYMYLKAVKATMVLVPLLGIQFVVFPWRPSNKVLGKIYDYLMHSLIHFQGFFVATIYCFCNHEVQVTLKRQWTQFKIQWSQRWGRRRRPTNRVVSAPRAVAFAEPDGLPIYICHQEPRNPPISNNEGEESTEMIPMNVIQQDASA
# T1 sequence (Q9WTJ5 27-148 partner): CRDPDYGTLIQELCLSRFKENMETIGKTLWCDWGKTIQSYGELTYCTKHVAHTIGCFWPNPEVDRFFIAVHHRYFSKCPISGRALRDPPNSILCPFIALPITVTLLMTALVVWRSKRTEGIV
# Method: Transfection of L6 myoblasts and cos-7 cells, and analysis of radioligand binding. L6 myoblasts and cos-7 cells were obtained from ATCC. Both cell lines were cultered in Dulbecco's modified Eagle's medium (DMEM; Gibco/BRL, high glucose) supplemented with 10% fetal calf serum (Gibco/BRL, Gaithersburg, Md.), L-glutamine (2 mM), penicillin (100 U/ml; Sigma), streptomycin ([…]; Sigma), saline (0.85%), under 5% CO2/95% air at 37° C. The day before transfection, cells were trypsinised and seeded into six-well plates at a density of 2.9×10^5 cells/well in the same medium. For transfection, cells were incubated with a mixture comprising 1 μg each of Qiagen-purified (Qiagen, Valencia, Calif.) plasmids containing C1ins− with either ramp 1 or ramp 3, and Fugene reagent (6 μl; Boehringer Mannheim) in Opti-Mem I medium (Gibco/BRL). The complex was added with serum to cells, which were incubated for a further 48 h.
# Determination of cAMP in cultured cells and soleus muscle strips. cAMP concentration was measured in cells seeded in six-well plates and transfected as described. Following aspiration, cells were incubated for 15 min at room temperature in the presence of stated concentrations of ligands in binding buffer. Isobutylmethylxanthine (Sigma) was added to a final concentration of 0.5 mM together with stated concentrations of peptides, and the reaction terminated by aspiration. Cells were washed with 0.5 ml ice-cold TE buffer (10 mM Tris/HCl, 1 mM EDTA, pH 7.6) and rapidly transferred to eppendorf tubes in 1 ml of the same buffer, then boiled for 5 min. Following centrifugation at 12,000 g for 5 min at 4° C., then cooling on ice, duplicate 50 μl aliquots were analyzed for cAMP using an assay system based on competitive binding (Arnersham Pharmacia) according to the manufacturer's instructions.
# soleus muscle [1] = assay: cAMP content of isolated soleus muscle from high fat-fed rats; assay type: cell-based, rat
# Method: (§1) Soleus muscle preparation. All experiments were performed according to protocols approved by the Institutional Animal Ethics Committee. 5-6 week-old male Wistar rats (160 g) were kept on a 12:12-h light/dark cycle, and fed and watered ad libitum. Animals were anaesthetised with 50 mg/kg Nembutal (pentobarbitone sodium), then sacrificed by cervical dislocation. Soleus muscles were dissected under oxygenated KHB (118 mM NaCl, 4.75 mM KCl, 1.2 mM MgSO4, 24.8 mM NaHCO3, 1.2 mM KH2PO4, 2.54 mM CaCl2, 10 mM glucose, pH 7.4) and teased into halves, then incubated as described below.
# (§2) For the measurement of cAMP in muscle, isolated soleus strips were incubated with stated concentrations of peptides, then lyophilized and deproteinized. Each strip was placed in 400 μl of 0.5 M HClO4 with 5 mM EDTA (phosphodiesterase inhibitor) and sonicated three times in 20 s bursts. Tubes were heated for 3-5 min in boiling water to coagulate protein, then centrifuged (12,000 g, 4° C., 2 min). Supernatant (300 μl) was taken and the pH adjusted to 7.0 with 75 μl of 2 M NH4OH. The samples were refrigerated (4° C., 2 h) to precipitate proteins, then centrifuged under the same conditions as above and 50 μl taken for cAMP measurement.
# soleus muscle [2] = assay: Incorporation of D[14C(U)]glucose into glycogen in isolated incubated soleus muscle; assay type: cell-based, rat; settings: for rate of D[14C(U)]glucose incorporation into glycogen: 10 nM peptide, 2 h; for EC50: isolated rat soleus muscle
# Method: as §1
# Measurement of glycogen metabolism in isolated, incubated soleus muscle. […]. Glycogen was precipitated overnight at −20° C. with 96% ethanol (1.2 ml), followed by centrifugation at 8,000 g (15 min, 4° C.). Pellets were washed twice with the same amount of ethanol then dissolved in water (0.6 ml). Aliquots (0.3 ml) were analyzed for D[^14C(U)] glucose content by liquid scintillation spectrometry.
# (§3) Data analysis. One way ANOVA, Dunnett's Multiple Comparisons Test, and unpaired Student's t-tests were used to calculate the statistical significance of differences, as appropriate. Dose-response curves were fitted to a sigmoidal dose-response algorithm, as follows: Y=minimum+(maximum−minimum)/([…] log ^(EC50^−X), for 2-DOG-uptake; and by a four parameter logistic model, Y=minimum+(maximum−minimum)/(1+10 log ^(EC50^−X)Hill-Coefficient) for total glycogen and [^14C]glucose incorporation. Calculations were performed using Prism v2.0 (GraphPad Software, San Diego, Calif.) to derive values for half-maximal effective concentration (EC50). Displacement curves derived for competition of bound radioligand with cold ligand in transfected cells were calculated according to a one site competition fit using Prism v2.0.
# soleus muscle [3] = assay: Total glycogen content in isolated incubated soleus muscle; assay type: cell-based, rat; settings: for total glycogen content: 10 nM peptide, 2 h; for EC50: isolated rat soleus muscle
# Method: as §1
# Total glycogen content was measured in muscle strips by lyophilization followed by hydrolysis of glycogen to D-glucose with amyloglucosidase (Sigma) 20 U/100 ml in 0.2 M sodium acetate/acetic acid buffer, pH 4.8, and expressed as μmol ‘glucosyl’ units/g dry muscle weight. Free glucose in supernatant solutions was measured with a glucose/lactate analyzer (YSI 2300STAT, Yellow Springs Corporation) using D-glucose oxidase immobilized enzyme chemistry.
# as §3
# soleus muscle [4] = assay: cAMP content of isolated soleus muscle from normal fed rats; assay type: cell-based, rat
# Method: as §1, §2
# [5] = absence of insulin, control 4.8±0.3
# [6] = maximal insulin, control 27.6±1.4
# [7] = absence of insulin, basal 90.8±3.7
# [8] = insulin 23.7 nM, insulin alone 138±4.8
Substance,cAMP production in co-transfected myoblasts (ramp 1/C1ins− receptor),"cAMP content, agonist alone (soleus muscle [1]; 1 pM CGRP, control 5.7±0.2) [pmol/mg]","cAMP content, agonist alone (soleus muscle [1]; 100 nM CGRP1, control 5.7±0.2) [pmol/mg]",rate of D[14C(U)]glucose incorporation into glycogen (soleus muscle [2]; [5]) [μmol/g dry-wt muscle/h],rate of D[14C(U)]glucose incorporation into glycogen (soleus muscle [2]; [6]) [μmol/g dry-wt muscle/h],EC50 (soleus muscle [2]; absence of insulin) [nM],EC50 (soleus muscle [2]; human insulin 23.7 nM) [nM],total glycogen content (soleus muscle [3]; [7]) [μmol/g dry-wt muscle/h],total glycogen content (soleus muscle [3]; [8]) [μmol/g dry-wt muscle/h],EC50 (soleus muscle [3]; absence of insulin) [nM],EC50 (soleus muscle [3]; human insulin 23.7 nM) [nM],"muscle cAMP content (soleus muscle [4]; CGRP at both 5 nM and 100 nM, absence or presence of insulin (23.7 nM))","cAMP content, agonist alone (soleus muscle [4]; normal fed, 100 nM CGRP or adrenaline, control 3.9±0.2) [pmol/mg]","cAMP increase with 1 pM CGRP (soleus muscle [4]; normal fed, 1 hr incubation)","maximal increase in cAMP content (soleus muscle [4]; 10 nM or 100 nM amylin, absence or presence of insulin)",effect of picomolar concentrations on muscle cAMP levels (soleus muscle [4]; FIG. 13C)
rat CGRP-1,dose-dependent increases of cAMP production,8.6 ± 0.4,9.3 ± 1,2.8±0.3,13.7±0.7,3.1,0.7,71.4±7.7,113±6.9,3.2,4.3,significant increases in muscle cAMP content,6.9 ± 0.8,No significant cAMP increase,–,–
Rat amylin,dose-dependent increases of cAMP production,–,–,2.7±0.8,16.0±2.5,9.4,9.2,65.6±9.1,86.7,8,8.1,–,–,–,about 2 fold,no effect
